# Data as given in patent US9533977B2, “Oxazolidinone derivative as CETP inhibitor, its preparation method, and pharmaceutical composition comprising the same” (DONG-A ST CO., LTD., priority 2013, dated 2017).
# Tests used:
# CETP [1] = experiment: Effect on CETP activity in hamster administered with single dose; assay type: in vivo, Golden Syrian hamsters; conditions: hamsters, single oral dose 100 mg/kg, blood 0.5-24 hrs after administration, compared to pre-treatment
# Method: Each of the compounds of the Examples was orally administered at a dose of 100 mg/kg to three 7-week-old male Golden Syrian hamsters per group. Blood samples were taken from the retro-orbital plexus before administration and 0.5, 1, 2, 4, 6, 8, and 24 hrs after administration, and measured for blood CETP activity using a Roar CETP activity assay kit (Cat#: RB-CETP, Roar Biomedical Inc.).
# CETP [2] = target: T1, CETP (Homo sapiens, UniProt P11597); experiment: Inhibitory activity against CETP in human plasma (Roar CETP activity kit, fluorescence); assay type: biochemical; conditions: plasma from healthy men diluted 1:10 in assay buffer, 37° C., 3 hrs, fluorescence 465/535 nm; read-out: IC50, Inhibition of CETP Activity in Human Plasma
# T1 construct: from tissue; host or cells: human plasma from healthy men
# T1 sequence (P11597 18-493): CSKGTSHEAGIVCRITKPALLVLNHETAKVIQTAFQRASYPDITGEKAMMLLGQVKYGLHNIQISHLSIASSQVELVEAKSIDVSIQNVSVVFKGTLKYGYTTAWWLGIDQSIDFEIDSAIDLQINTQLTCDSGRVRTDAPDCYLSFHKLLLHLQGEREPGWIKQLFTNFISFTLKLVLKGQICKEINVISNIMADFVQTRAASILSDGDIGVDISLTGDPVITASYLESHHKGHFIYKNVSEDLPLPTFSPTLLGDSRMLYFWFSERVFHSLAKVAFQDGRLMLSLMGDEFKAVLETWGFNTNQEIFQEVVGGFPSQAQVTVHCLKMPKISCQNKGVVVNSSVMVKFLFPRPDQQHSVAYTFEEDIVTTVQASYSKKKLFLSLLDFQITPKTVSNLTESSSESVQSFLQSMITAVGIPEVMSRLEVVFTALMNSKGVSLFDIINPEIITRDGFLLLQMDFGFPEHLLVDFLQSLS
# Summary of the method: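 Healthy male human plasma, diluted 1:10, incubated 3 hrs at 37° C with donor/acceptor fluorescent substrates and compound (0.01–10000 nM, DMSO). Fluorescence at ex 465/em 535 nm, background-corrected against no-plasma and no-compound wells; IC50 from sigmoidal fit.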
SMILES,IC50 (CETP [2]) [nM],Relative Maximal Inhibition of CETP Activity to Pre-Administration (%) (CETP [1])
"CCN(c1ncc(-c2cccn2C)cc1CN1C(=O)O[C@H](c2cc(C(F)(F)F)cc(C(F)(F)F)c2)[C@@H]1C)C1CCCCC1 [Example 56, (4S,5R)-5-[3,5-bis(trifluoromethyl)phenyl]-4-methyl-3-({[2-(ethyl)(cyclohexyl-4-yl)amino]-5-(1-methyl-1H-pyrrol-2-yl)pyridin-3-yl}methyl) oxazolidin-2-one]",10.9,49
"CCN(c1ncc(-c2cccn2C)cc1CN1C(=O)O[C@H](c2cc(C(F)(F)F)cc(C(F)(F)F)c2)[C@@H]1C)C1CCOCC1 [Example 50, (4S,5R)-5-[3,5-bis(trifluoromethyl)phenyl]-4-methyl-3-({[2-(ethyl)(tetrahydro-2H-pyran-4-yl)amino]-5-(1-methyl-1H-pyrrol-2-yl)pyridin-3-yl}methyl)-oxazolidin-2-one]",11.1,57
"CCN(c1ncc(-c2csnc2C)cc1CN1C(=O)O[C@H](c2cc(C(F)(F)F)cc(C(F)(F)F)c2)[C@@H]1C)C1CCCCC1 [Example 87, (4S,5R)-5-[3,5-bis(trifluoromethyl)phenyl]-4-methyl-3-({[2-(ethyl)(cyclohexyl)amino]-5-(3-methyl-isothioxazol-4-yl)pyridin-3-yl}methyl)-oxazolidin-2-one]",5.6,59
"CCN(c1ncc(C(F)(F)F)cc1CN1C(=O)O[C@H](c2cc(C(F)(F)F)cc(C(F)(F)F)c2)[C@@H]1C)C1CCN(CC(=O)O)CC1 [Example 39, 2-(4-{[3-({(4S,5R)-5-[3,5-bis(trifluoromethyl)phenyl]-4-methyl-2-oxo-oxazolidin-3-yl}methyl)-5-(trifluoromethyl)pyridin-2-yl](ethyl)amino}piperidin-1-yl)acetic acid]",492,
C[C@H]1C(c2cc(C(F)(F)F)cc(C(F)(F)F)c2)OC(=O)N1Cc1nc(C2CCC2)cnc1N(C)C[C@H]1CC[C@H](CC(=O)O)CC1 (some centres unmarked) [Example 128],23.9,
CCN(C[C@H]1CC[C@H](CC(=O)O)CC1)c1ncc(-c2ccccc2)nc1CN1C(=O)OC(c2cc(C(F)(F)F)cc(C(F)(F)F)c2)[C@@H]1C (some centres unmarked) [Example 116],6.29,
"CCN(CC1CCC(CCO)CC1)c1ncc(N2CCCC2)nc1CN1C(=O)OC(c2cc(C(F)(F)F)cc(C(F)(F)F)c2)C1C [Example 131, trans-4-({[3-({(4S,5S)-5-[3,5-bis(trifluoromethyl)phenyl]-4-methyl-2-oxazolidin-3-yl}methyl)-5-(pyrrolidin-4-yl)pyrazin-2-yl]{[N-(ethyl)aminomethyl]cyclohexyl)}propanol]",4.98,

# More lines, main results first:
IC50 (CETP [2]) [nM],SMILES,Relative Maximal Inhibition of CETP Activity to Pre-Administration (%) (CETP [1])
5.7,"CCN(c1ncc(-c2ccnn2C)cc1CN1C(=O)O[C@H](c2cc(C(F)(F)F)cc(C(F)(F)F)c2)[C@@H]1C)C1CCCCC1 [Example 59, (4S,5R)-5-[3,5-bis(trifluoromethyl)phenyl]-4-methyl-3-({[2-(ethyl)(cyclohexyl)amino]-5-(1-methyl-1H-pyrazol-5-yl)pyridin-3-yl}methyl)-oxazolidin-2-one]",
5.2,"CCN(c1ncc(C(F)(F)F)cc1CN1C(=O)O[C@H](c2cc(C(F)(F)F)cc(C(F)(F)F)c2)[C@@H]1C)C1CCCCC1 [Example 53, (4S,5R)-5-[3,5-bis(trifluoromethyl)phenyl]-4-methyl-3-({[2-(ethyl)(cyclohexyl)amino]-5-(trifluoromethyl)pyridin-3-yl}methyl)-oxazolidin-2-one]",
410,"CCN(c1ncc(C(F)(F)F)cc1CN1C(=O)O[C@H](c2cc(C(F)(F)F)cc(C(F)(F)F)c2)[C@@H]1C)C1CCN(S(C)(=O)=O)CC1 [Example 32, (4S,5R)-5-[3,5-bis(trifluoromethyl)phenyl]-4-methyl-3-({[2-(ethyl)(1-methanesulfonylpiperidin-4-yl)amino]-5-trifluoromethylpyridin-3-yl}methyl)-oxazolidin-2-one]",
16,CCN(C[C@H]1CC[C@H](CC(=O)O)CC1)c1ncc(-c2cscn2)nc1CN1C(=O)OC(c2cc(C(F)(F)F)cc(C(F)(F)F)c2)[C@@H]1C (some centres unmarked) [Example 113],
